# Measurements: patent publication US12281122B1, “PI3K inhibitors” (Cogent Biosciences, Inc., priority 2023, dated 2025)
# Assays:
# [1] = system: T47D (PI3Kα-H1047R) cell line; assay: HTRF phospho-AKT(S473) cell assay in T47D cells; assay type: cell-based, human
# Method in brief: (§1)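 HTRF read-out of phospho-AKT(S473) in lysates gave IC50 values after 2 h compound exposure at 37° C. Dose series was 12 points at 1:3, topping at 5 μM for T47D and 10 μM for SKBR3. Only SKBR3 received 70 ng/ml PDGF-BB during the last 15 minutes.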
# [2] = system: SKBR3 (PI3Kα-Wild Type) cell line; assay: HTRF phospho-AKT(S473) cell assay in SKBR3 cells; assay type: cell-based, human
# Method in brief: as §1
# [3] = Homo sapiens; HTRF phospho-AKT(S473), T47D (PI3Kα-H1047R) cells, 2 hours compound incubation
# [4] = Homo sapiens, SK-BR-3; HTRF phospho-AKT(S473), SKBR3 (PI3Kα-Wild Type) cells, 2 hours compound incubation, PDGF-BB stimulated
# [5] = Homo sapiens; T47D (PI3Kα-H1047R) cells, HTRF phospho-AKT(S473), 2 hours compound incubation
# [6] = Homo sapiens, SK-BR-3; SKBR3 (PI3Kα-Wild Type) cells, HTRF phospho-AKT(S473), 2 hours compound incubation, PDGF-BB stimulated
SMILES,"IC50 [1, 3] [nM]","IC50 [2, 4] [µM]","IC50 [1, 5] [nM]","IC50 [2, 6] [µM]"
"COc1ccccc1-n1cc2c(n1)CN(c1nc3c([C@@H](C)Nc4ccc(Cl)nc4C(=O)NS(C)(=O)=O)cc(C)cc3c(=O)n1C)C2 [Compound 705, (R)-6-chloro-3-((1-(2-(2-(2-methoxyphenyl)-2,6-dihydropyrrolo[3,4-c]pyrazol-5(4H)-yl)-3,6-dimethyl-4-oxo-3,4-dihydroquinazolin-8-yl)ethyl)amino)-N-(methylsulfonyl) picolinamide]",250 to 500,≥ 5,–,–
"COc1cc(C2CCN(c3nc4c([C@@H](C)Nc5ccc(Cl)nc5C(=O)NS(C)(=O)=O)cc(C)cc4c(=O)n3C)CC2)ccn1 [Compound 640, (R)-6-chloro-3-((1-(2-(4-(2-methoxypyridin-4-yl)piperidin-1-yl)-3,6-dimethyl-4-oxo-3,4-dihydroquinazolin-8-yl)ethyl)amino)-N-(methylsulfonyl) picolinamide]",250 to 500,≥ 5,–,–
"Cc1cc([C@@H](C)Nc2ccc(Cl)nc2C(=O)NS(C)(=O)=O)c2nc(-c3ccc(O[C@@H]4CCNCC4(F)F)nc3)n(C)c(=O)c2c1 [Compound 333, 6-chloro-3-(((R)-1-(2-(6-(((R)-3,3-difluoropiperidin-4-yl)oxy)pyridin-3-yl)-3,6-dimethyl-4-oxo-3,4-dihydroquinazolin-8-yl)ethyl)amino)-N-(methylsulfonyl) picolinamide]",–,–,< 250,1 to 5
"Cc1cc([C@@H](C)Nc2ccc(Cl)nc2C(=O)NS(C)(=O)=O)c2nc(N3[C@@H]4CC[C@H]3C[C@H](c3cnc(C)nc3)C4)n(C)c(=O)c2c1 [Compound 300, 6-chloro-3-(((R)-1-(3,6-dimethyl-2-((1R,3S,5S)-3-(2-methylpyrimidin-5-yl)-8-azabicyclo[3.2.1]octan-8-yl)-4-oxo-3,4-dihydroquinazolin-8-yl)ethyl)amino)-N-(methylsulfonyl) picolinamide]",–,–,< 250,≥ 5
"Cc1cc([C@@H](C)Nc2ccc(Cl)nc2C(=O)NS(C)(=O)=O)c2nc(N3CCC(c4ccc[nH]c4=O)CC3)n(C)c(=O)c2c1 [Compound 706, (R)-6-chloro-3-((1-(3,6-dimethyl-4-oxo-2-(4-(2-oxo-1,2-dihydropyridin-3-yl)piperidin-1-yl)-3,4-dihydroquinazolin-8-yl)ethyl)amino)-N-(methylsulfonyl) picolinamide]",500 to 1000,≥ 5,–,–
"Cc1cc([C@@H](C)Nc2ccc(Cl)nc2C(=O)NS(C)(=O)=O)c2nc(N3CC[C@H](Oc4ccc(F)cc4)C3)n(C)c(=O)c2c1 (relative stereo) [Compound 691, 6-chloro-3-(((R)-1-(2-((R*)-3-(4-fluorophenoxy)pyrrolidin-1-yl)-3,6-dimethyl-4-oxo-3,4-dihydroquinazolin-8-yl)ethyl)amino)-N-(methylsulfonyl) picolinamide]",250 to 500,≥ 5,–,–
"Cc1cc([C@@H](C)Nc2ccc(Cl)nc2C(=O)NS(C)(=O)=O)c2nc(N3[C@@H]4CC[C@H]3C[C@@H](c3cnn(C)c3)C4)n(C)c(=O)c2c1 [Compound 297, 6-chloro-3-(((R)-1-(3,6-dimethyl-2-((1R,3R,5S)-3-(1-methyl-1H-pyrazol-4-yl)-8-azabicyclo[3.2.1]octan-8-yl)-4-oxo-3,4-dihydroquinazolin-8-yl)ethyl)amino)-N-(methylsulfonyl) picolinamide]",–,–,250 to 500,≥ 5
"Cc1cc([C@@H](C)Nc2ccc(Cl)nc2C(=O)NS(C)(=O)=O)c2nc(N3CCC[C@@H](c4ccnn4C(F)F)C3)n(C)c(=O)c2c1 (relative stereo) [Compound 771, 6-chloro-3-(((R)-1-(2-((R*)-3-(1-(difluoromethyl)-1H-pyrazol-5-yl)piperidin-1-yl)-3,6-dimethyl-4-oxo-3,4-dihydroquinazolin-8-yl)ethyl)amino)-N-(methylsulfonyl) picolinamide]",250 to 500,≥ 5,–,–
"Cc1cc([C@@H](C)Nc2ccc(Cl)nc2C(=O)NS(C)(=O)=O)c2nc(N3CC[C@@H](Oc4ncc(F)cn4)C3)n(C)c(=O)c2c1 [Compound 538, 6-chloro-3-(((R)-1-(2-((R)-3-((5-fluoropyrimidin-2-yl)oxy)pyrrolidin-1-yl)-3,6-dimethyl-4-oxo-3,4-dihydroquinazolin-8-yl)ethyl)amino)-N-(methylsulfonyl) picolinamide]",< 250,1 to 5,–,–

# Continued, values first:
"IC50 [1, 3] [nM]","IC50 [2, 4] [µM]","IC50 [1, 5] [nM]","IC50 [2, 6] [µM]",SMILES
250 to 500,≥ 5,–,–,"Cc1cc([C@@H](C)Nc2ccc(Cl)nc2C(=O)NS(C)(=O)=O)c2nc(N3C[C@H]4C[C@@H]3C[C@H]4c3nn(C)cc3F)n(C)c(=O)c2c1 [Compound 766, 6-chloro-3-(((R)-1-(2-((1R,4S,5R)-5-(4-fluoro-1-methyl-1H-pyrazol-3-yl)-2-azabicyclo[2.2.1]heptan-2-yl)-3,6-dimethyl-4-oxo-3,4-dihydroquinazolin-8-yl)ethyl)amino)-N-(methylsulfonyl) picolinamide]"
–,–,< 250,1 to 5,"Cc1cc([C@@H](C)Nc2ccc(Cl)nc2C(=O)NS(C)(=O)=O)c2nc(N3CC[C@@H](Oc4cc[nH]n4)C3)n(C)c(=O)c2c1 [Compound 363, 3-(((R)-1-(2-((R)-3-((1H-pyrazol-3-yl)oxy)pyrrolidin-1-yl)-3,6-dimethyl-4-oxo-3,4-dihydroquinazolin-8-yl)ethyl)amino)-6-chloro-N-(methylsulfonyl) picolinamide]"
250 to 500,≥ 5,–,–,"[2H]C([2H])([2H])n1nc([C@H]2[C@@H]3CN(c4nc5c([C@@H](C)Nc6ccc(Cl)nc6C(=O)NS(C)(=O)=O)cc(C)cc5c(=O)n4C)C[C@@H]32)c(Cl)c1C [Compound 661, 6-chloro-3-(((R)-1-(2-((1R,5S,6R)-6-(4-chloro-5-methyl-1-(methyl-d3)-1H-pyrazol-3-yl)-3-azabicyclo[3.1.0]hexan-3-yl)-3,6-dimethyl-4-oxo-3,4-dihydroquinazolin-8-yl)ethyl)amino)-N-(methylsulfonyl) picolinamide]"
< 250,1 to 5,–,–,"Cc1cc([C@@H](C)Nc2ccc(Cl)nc2C(=O)NS(C)(=O)=O)c2nc(N3CCC(c4ncc(C)c(C)n4)CC3)n(C)c(=O)c2c1 [Compound 544, (R)-6-chloro-3-((1-(2-(4-(4,5-dimethylpyrimidin-2-yl)piperidin-1-yl)-3,6-dimethyl-4-oxo-3,4-dihydroquinazolin-8-yl)ethyl)amino)-N-(methylsulfonyl) picolinamide]"
–,–,< 250,1 to 5,"Cc1cc([C@@H](C)Nc2ccc(Cl)nc2C(=O)NS(C)(=O)=O)c2nc(N3CCC(c4ccn(C(C)C)n4)CC3)n(C)c(=O)c2c1 [Compound 249, (R)-6-chloro-3-((1-(2-(4-(1-isopropyl-1H-pyrazol-3-yl)piperidin-1-yl)-3,6-dimethyl-4-oxo-3,4-dihydroquinazolin-8-yl)ethyl)amino)-N-(methylsulfonyl) picolinamide]"
< 250,1 to 5,–,–,"Cc1cc([C@@H](C)Nc2ccc(Cl)nc2C(=O)NS(C)(=O)=O)c2nc(N3C[C@@H]4[C@H](C3)[C@H]4c3nn(C)nc3C)n(C)c(=O)c2c1 [Compound 497, 6-chloro-3-(((R)-1-(2-((1R,5S,6R)-6-(2,5-dimethyl-2H-1,2,3-triazol-4-yl)-3-azabicyclo[3.1.0]hexan-3-yl)-3,6-dimethyl-4-oxo-3,4-dihydroquinazolin-8-yl)ethyl)amino)-N-(methylsulfonyl) picolinamide]"
250 to 500,≥ 5,–,–,"COc1cc(C2CCN(c3nc4c([C@@H](C)Nc5ccc(Cl)nc5C(=O)NS(C)(=O)=O)cc(C)cc4c(=O)n3C)CC2)nn1C [Compound 704, (R)-6-chloro-3-((1-(2-(4-(5-methoxy-1-methyl-1H-pyrazol-3-yl)piperidin-1-yl)-3,6-dimethyl-4-oxo-3,4-dihydroquinazolin-8-yl)ethyl)amino)-N-(methylsulfonyl) picolinamide]"
–,–,< 250,1 to 5,"Cc1cc([C@@H](C)Nc2ccc(Cl)nc2C(=O)NS(C)(=O)=O)c2nc(N3C[C@@H]4C[C@H]3C[C@@H]4c3ccn(C)n3)n(C)c(=O)c2c1 (relative stereo) [Compound 356, 6-chloro-3-(((R)-1-(3,6-dimethyl-2-((1R*,4S*,5R*)-5-(1-methyl-1H-pyrazol-3-yl)-2-azabicyclo[2.2.1]heptan-2-yl)-4-oxo-3,4-dihydroquinazolin-8-yl)ethyl)amino)-N-(methylsulfonyl) picolinamide]"
250 to 500,1 to 5,–,–,"Cc1cc([C@@H](C)Nc2ccc(Cl)nc2C(=O)NS(C)(=O)=O)c2nc(N3CCC(c4nn(C)cc4C#N)CC3)n(C)c(=O)c2c1 [Compound 697, (R)-6-chloro-3-((1-(2-(4-(4-cyano-1-methyl-1H-pyrazol-3-yl)piperidin-1-yl)-3,6-dimethyl-4-oxo-3,4-dihydroquinazolin-8-yl)ethyl)amino)-N-(methylsulfonyl) picolinamide]"
250 to 500,≥ 5,–,–,"CCn1cc(F)c(C2CCN(c3nc4c([C@@H](C)Nc5ccc(Cl)nc5C(=O)NS(C)(=O)=O)cc(C)cc4c(=O)n3C)CC2)n1 [Compound 758, (R)-6-chloro-3-((1-(2-(4-(1-ethyl-4-fluoro-1H-pyrazol-3-yl)piperidin-1-yl)-3,6-dimethyl-4-oxo-3,4-dihydroquinazolin-8-yl)ethyl)amino)-N-(methylsulfonyl) picolinamide]"
